We go through one molecule from US20170056380A1, “Systems, Methods, Techniques, and Compounds in Research and Treatment of Portal Hypertension and other Conditions” (priority 2014, published 2017).

What all share (format): cell-based, rat
One experiment concerns hepatic stellate cells. The experiment is described as follows: Collagen lattice assay (ET-1 stimulated stellate cell contraction, coculture with sinusoidal endothelial cells). Conditions: 50 or 100 nM 2 h, then ET-1 10 nM; coculture on collagen lattices. The protocol: (§1) For coculture experiments, freshly isolated stellate cells and freshly isolated sinusoidal endothelial cells were isolated separately and mixed together on collagen-coated plates and cultured for 5 days. Sinusoidal endothelial cells were plated at a density of 200,000 cells/cm2, and stellate cells were at a density of 65,000 cells/cm2.
Collagen lattice assay. Contraction of hepatic stellate cells was performed as previously described with minor modifications (25). Briefly, individual wells of a 24-well culture dish were incubated with PBS containing 1% BSA (500 μl/well) for 1 h at 37° C. and then washed two times with PBS and allowed to air dry. Collagen gels were prepared by mixing 60% type I tail collagen (Upstate Laboratories), 10% 10×MEM (GIBCO), 10% 0.2 HEPES, and 20% DMEM (GIBCO) to make a final concentration of collagen of 2.4 mg/ml. The solution was added to the culture wells and incubated for 1 h at 37° C., and hepatic stellate cells and sinusoidal endothelial cells were isolated separately from normal rat livers and cocultured (each at a density of 100,000 cells/lattice) on collagen lattices for 5 days. Cells were changed to serum-free medium overnight, then exposed to cicletanine, and then stimulated with endothelin-1 (ET-1, 10 nM). Collagen lattices were released from their substrata, and gel contraction was measured from 0 to 30 min.

The subject of another experiment is Erk1/2. The experiment is described as follows: Erk phosphorylation by immunoblotting in sinusoidal endothelial cells. As to conditions: 2 h. The protocol: Cell isolation and culture. Sinusoidal endothelial cells were isolated from male Sprague-Dawley rats (450-500 g) (Harlan, Indianapolis, Ind.). In brief, after in situ perfusion of the liver with 20 mg/100 mg pronase (Roche Molecular Biochemicals, Indianapolis, Ind.), followed by collagenase (Worthington Biochemical, Lakewood, N.J.), dispersed cell suspensions were removed from a layered discontinuous density gradient of 8.2 and 15.6% Accudenz (Accurate Chemical and Scientific, Westbury, N.Y.), further purified by centrifugal elutriation (18 ml/min flow), and were grown in medium containing 20% serum (10% horse/calf). The purity of endothelial cells was documented by their uptake of fluorescently labeled di-l-acetoacetylated low-density lipoprotein as described (21). […]
Immunoblotting, Immunoblotting was performed by using specified primary antibodies, including anti-eNOS antibody (1:1,000; BD Transduction Laboratories, San Jose, Calif.), anti-phospho-eNOS-Ser^1177 (1:1,000; BD Transduction Laboratories or Cell Signaling Technology), anti-phospho-Akt, anti-Akt (Cell Signaling Technology, Beverly, Mass.), and horseradish peroxidase-conjugated secondary antibody. Specific signals were visualized using enhanced chemiluminescence as per the manufacturer's instructions and were scanned and quantitated with standard software. […]
On the technique in general: Immunoblotting shows a protein as a band on a membrane.

The subject of experiment [1] is NO production in sinusoidal endothelial cells. The experiment is described as follows: NO measurement (nitrite in conditioned medium of sinusoidal endothelial cells). As for the experimental part: Cell isolation and culture. Sinusoidal endothelial cells were isolated from male Sprague-Dawley rats (450-500 g) (Harlan, Indianapolis, Ind.). In brief, after in situ perfusion of the liver with 20 mg/100 mg pronase (Roche Molecular Biochemicals, Indianapolis, Ind.), followed by collagenase (Worthington Biochemical, Lakewood, N.J.), dispersed cell suspensions were removed from a layered discontinuous density gradient of 8.2 and 15.6% Accudenz (Accurate Chemical and Scientific, Westbury, N.Y.), further purified by centrifugal elutriation (18 ml/min flow), and were grown in medium containing 20% serum (10% horse/calf). The purity of endothelial cells was documented by their uptake of fluorescently labeled di-l-acetoacetylated low-density lipoprotein as described (21). Only primary sinusoidal endothelial isolates of >95% purity were used for study. Experiments were performed with cells frorrr a minimum three different isolations (for all experiments).
Animal model of liver injury and portal hypedension. Liver injury and portal hypertension were induced by performing bile duct ligation in 450- to 500-gram male retired breeder Sprague-Dawley rats as described in Liu and 20- to 25-gram male BALB/c mice. Briefly, bile duct ligation was performed by surgical isolation and ligation of the common bile duct. This model creates a portal-based fibrogenic response and portal hypertension 10-14 days after surgery (Liu). For study of injured sinusoidal endothelial cells, we used the rat model of bile duct ligation (10-14 days postsurgery); for in vivo study (primarily to conserve the use of active compound), we used the mouse model of bile duct ligation (examining portal pressure 4 wk postsurgery). In sham-operated rats or mice, laparotomy without isolation and section of the bile duct was performed. Studies were approved by the local Institutional Animal Care and Use Committees. Portal pressure measurement. Portal hypertension was induced in male BALB/c mice by bile duct ligation as above. Cicletanine (5 mg·kg^−1·day^−1) or vehicle was given by gavage as a single daily dose for 10 days before portal pressure measurement as described in Liue. In brief, mice were anesthetized, and an intravenous catheter (Becton Dickinson Vascular Access, Sandy, Utah) was introduced in the portal vein and secured with a silk tie. A calibrated low-pressure transducer (Digi-Med, Louisville, Ky.) was connected to the portal vein catheter, and portal pressure was recorded continuously using the Digi-Med Integrator 200 System (Digi-bled).
NO measurement. To assess NO production, we analyzed the release of nitrite, the stable breakdown product of NO, using a nitrite/nitrate assay kit (Cayman Chemicals, Ann Arbor, Mich.), following the manufacturer's instructions. Briefly, conditioned medium from sinusoidal endothelial cells with or without cicletanine treatment were loaded on a 96-well plate and mixed with both enzyme cofactor and nitrate reductase. After incubation at room temperature for 3 h, 100 μl Griess reagent mix were added to each well. After 10 more minutes at room temperature, the absorbance of each well was determined on a microplate reader at 540 nm, and the nitrite concentrations were deduced from a standard curve.

Another experiment deals with protein kinase G (PKG). The experiment is described as follows: Phospho-VASP immunoblotting for PKG activity in stellate cells alone or cocultured with sinusoidal endothelial cells. As for the experimental part: as §1
Immunoblotting, Immunoblotting was performed by using specified primary antibodies, including anti-eNOS antibody (1:1,000; BD Transduction Laboratories, San Jose, Calif.), anti-phospho-eNOS-Ser^1177 (1:1,000; BD Transduction Laboratories or Cell Signaling Technology), anti-phospho-Akt, anti-Akt (Cell Signaling Technology, Beverly, Mass.), and horseradish peroxidase-conjugated secondary antibody. Specific signals were visualized using enhanced chemiluminescence as per the manufacturer's instructions and were scanned and quantitated with standard software.

Entries after “also recorded” stand apart in the source; their conditions may differ.

As to `Cc1ncc2c(c1O)COC2c1ccc(Cl)cc1` (stereo not shown) [cicletanine, 3-(4-chlorophenyl)-1,3-dihydro-7-hydroxy-6-methylfuro-(3,4-c) pyridine], in the experiment on hepatic stellate cells, the stellate cell contraction result is “inhibited stellate cell contraction in a dose-dependent manner”. For the same molecule, in the experiment on Erk1/2 (50 or 100 nM, normal sinusoidal endothelial cells), the “phosphorylation of Erk” value was “increased in a dose-dependent manner; also recorded: robustly induced”. Besides, the Erk1/2 phosphorylation result in the experiment with Erk1/2 (sinusoidal endothelial cells injured by bile duct ligation) is recorded as “increased”. In addition, the “dose dependence of effect on nitrite production” value in experiment [1] (50 or 100 nM, 2 h) is listed as “dose dependent”. The “nitrite levels in conditioned medium” value in experiment [1] (2 h exposure, normal sinusoidal endothelial cells) is recorded as “significantly increased”. The nitrite production entry is “stimulated” in experiment [1] (cells transduced with adenovirus 24 h, then cicletanine 100 nM 2 h) and “increase” in experiment [1] (sinusoidal endothelial cells injured by bile duct ligation, 2 h). Also, in experiment [1] (cicletanine 100 nM, 0-4 h), the “time at which nitrite levels started to increase” value amounted to 30 min. For the same molecule, the VASP phosphorylation result in the experiment with protein kinase G (PKG) (stellate cells alone) is “did not alter”; in the experiment with protein kinase G (PKG) (stellate cells cocultured with sinusoidal endothelial cells) it was “stimulated”.
